# Measurements taken from patent US9192638B2, “Preparation comprising amino acids and plants and its activity in the alcohol detoxification” (Modutech S.A., priority 2009, dated 2015).
# Tested on: Mice
# Assay: Acute cerebral ischemia hypoxia survival time of mice, different formulations (Example 1)
# Type: in vivo
# Conditions: 800 mg/kg per day oral, 7 days, sacrificed 1 h after last dosing
# Procedure: The acute cerebral ischemia hypoxia survival time of the mice through different formulations is provided.
# Dosage: 800 mg/kg per day per group. The test sample is prepared by redistilled water and drenched into the stomach through the mouth for seven days continuously.
# Testing Method: The mice are respectively sacrificed one hour after the last stomach drenching, and the time from the sacrifice of the mice to the time when they stop gasping through mouths is recorded with a second counter.
structure (smiles),measurement,value
"NC(=O)NCCC[C@H](N)C(=O)O [Sample 1, Citrulline]",Gasp Stopping Time,12.6 s
